# Reference: US20230096766A1, “AMINO ACID HAVING FUNCTIONAL GROUP CAPABLE OF INTERMOLECULAR HYDROGEN BONDING, PEPTIDE COMPOUND CONTAINING SAME AND METHOD FOR PRODUCTION THEREOF” (Chugai Seiyaku Kabushiki Kaisha, priority 2018, published 2023)
# *1 amine or outer side, *2 acyl side, *3 side chain or, on linkers, in order; H or OH if unused. Where a SMILES comes first, the peptide text is derived from it. Bridges are numbered along the chain shown (N, C = ends). [ ]: non-standard residue; d: D form. The star is where a group is joined. ξ: configuration not given here. NMePhe(3-Cl) = CN[C@@H](Cc1cccc(Cl)c1)C(=O)O; NMehPhe = CN[C@@H](CCc1ccccc1)C(=O)O; NMeF = CN[C@@H](Cc1ccccc1)C(=O)O; NMeGABA = CN(CCCC(=O)[*:2])[*:1]; NMeI = CC[C@H](C)[C@H](NC)C(=O)O; CH2CONHtBu = CC(C)(C)NC(=O)C*; NMeL = CN[C@@H](CC(C)C)C(=O)O; Thr(3ξ) = CC(O)[C@H](N)C(=O)O; NMeV = CN[C@H](C(=O)O)C(C)C; NMeA = CN[C@@H](C)C(=O)O; Piperidide = C1CCN(*)CC1; CH2CMe2OH = CC(C)(O)C*; NBuGly = CCCCNCC(=O)O; Isopentyl = CC(C)CC*; NPrGly = CCCNCC(=O)O; Sar = CNCC(=O)O; tBu = CC(C)(C)*
# Assay: in vitro
# Conditions: human, Caco-2, Caco-2 (cm/sec)
row,SMILES,Papp
1,CCCN1CC(=O)N(C)[C@@H](CC(C)C)C(=O)N[C@@H](COCCC(C)C)C(=O)N(C)[C@@H](Cc2ccccc2)C(=O)N(C)[C@@H](C(C)C)C(=O)N[C@H](C(=O)N2CCCCC2)CC(=O)N[C@H](C(C)C)C(=O)N(C)[C@@H](Cc2ccccc2)C(=O)N[C@@H](COCC(C)(C)O)C(=O)N(C)[C@@H](CC(C)C)C(=O)N[C@@H]([C@@H](C)O)C1=O [AP01] ([dV][NMeF]S(CH2CMe2OH)[NMeL]T[NPrGly][NMeL]S(Isopentyl)[NMeF][NMeV]D-Piperidide; lactam N-11),1.4 ×10⁻⁶ cm/s
2,CC(C)C[C@@H]1NC(=O)[C@H](Cc2ccccc2)N(C)C(=O)[C@@H](C(C)C)NC(=O)C[C@@H](C(=O)N2CCCCC2)NC(=O)[C@H](CC(C)C)N(C)C(=O)[C@H](Cc2cccc(Cl)c2)N(C)C(=O)[C@H](COCC(C)(C)O)NC(=O)[C@H](CC(C)C)N(C)C(=O)CN(C)C(=O)[C@H]([C@@H](C)O)NC(=O)[C@H](CC(C)C)N(C)C1=O [AP02] ([dV][NMeF]L[NMeL]T[Sar][NMeL]S(CH2CMe2OH)[NMePhe(3-Cl)][NMeL]D-Piperidide; lactam N-11),1.3 ×10⁻⁶ cm/s
3,CC(C)CCOC[C@@H]1NC(=O)[C@H](Cc2ccccc2)N(C)C(=O)[C@H](Cc2ccccc2)N(C)C(=O)[C@H](COCC(C)(C)O)NC(=O)[C@H](CC(C)C)N(C)C(=O)CCCN(C)C(=O)C[C@@H](C(=O)N2CCCCC2)NC(=O)[C@H](CC(C)C)N(C)C(=O)[C@H](CC(C)C)N(C)C(=O)[C@H]([C@@H](C)O)NC(=O)[C@H](CC(C)C)N(C)C1=O [AP03] ([NMeGABA][NMeL]S(CH2CMe2OH)[NMeF][NMeF]S(Isopentyl)[NMeL]T[NMeL][NMeL]D-Piperidide; lactam N-11),0.46 ×10⁻⁶ cm/s
4,CC[C@H](C)[C@@H]1NC(=O)[C@H](CC(C)C)N(C)C(=O)CCCN(C)C(=O)C[C@@H](C(=O)N2CCCCC2)NC(=O)[C@H](CC(C)C)N(C)C(=O)[C@H](CC(C)C)N(C)C(=O)[C@H]([C@@H](C)O)NC(=O)[C@H](CC(C)C)N(C)C(=O)[C@H](COCC(C)(C)O)NC(=O)[C@H](Cc2cccc(Cl)c2)N(C)C(=O)[C@H](Cc2ccccc2)N(C)C1=O [AP04] ([NMeGABA][NMeL]I[NMeF][NMePhe(3-Cl)]S(CH2CMe2OH)[NMeL]T[NMeL][NMeL]D-Piperidide; lactam N-11),0.53 ×10⁻⁶ cm/s
5,CCCN1CC(=O)N(C)[C@@H](CC(C)C)C(=O)N[C@H](C(=O)N2CCCCC2)CC(=O)N(C)[C@@H](C)C(=O)N[C@@H](COCC(C)(C)O)C(=O)N(C)[C@@H](CC(C)C)C(=O)N(C)[C@@H](Cc2ccccc2)C(=O)N[C@@H](CC(C)C)C(=O)N(C)[C@@H](Cc2ccccc2)C(=O)N(C)[C@@H]([C@@H](C)CC)C(=O)N[C@@H]([C@@H](C)O)C1=O [AP05] ([NMeA]S(CH2CMe2OH)[NMeL][NMeF]L[NMeF][NMeI]T[NPrGly][NMeL]D-Piperidide; lactam N-11),2.8 ×10⁻⁶ cm/s
6,CCCN1CC(=O)N(C)[C@@H](CC(C)C)C(=O)N[C@H](C(=O)N2CCCCC2)CC(=O)N(C)[C@@H](C)C(=O)N[C@@H](CC(C)C)C(=O)N(C)[C@@H](CC(C)C)C(=O)N(C)[C@@H](Cc2ccccc2)C(=O)N[C@@H](COCC(C)(C)O)C(=O)N(C)[C@@H](Cc2ccccc2)C(=O)N(C)[C@@H]([C@@H](C)CC)C(=O)N[C@@H]([C@@H](C)O)C1=O [AP06] ([NMeA]L[NMeL][NMeF]S(CH2CMe2OH)[NMeF][NMeI]T[NPrGly][NMeL]D-Piperidide; lactam N-11),0.033 ×10⁻⁶ cm/s
7,CCCN1CC(=O)N(C)[C@@H](Cc2cccc(Cl)c2)C(=O)N(C)[C@@H](CC(C)C)C(=O)N[C@@H](COC(C)(C)C)C(=O)N(C)[C@@H](CC(C)C)C(=O)N[C@H](C(=O)N2CCCCC2)CC(=O)N(C)CC(=O)N(C)[C@@H](Cc2ccccc2)C(=O)N[C@@H](COCC(C)(C)O)C(=O)N(C)[C@@H](CC(C)C)C(=O)N[C@@H]([C@@H](C)O)C1=O [AP07] ([Sar][NMeF]S(CH2CMe2OH)[NMeL]T[NPrGly][NMePhe(3-Cl)][NMeL]S(tBu)[NMeL]D-Piperidide; lactam N-11),1.3 ×10⁻⁶ cm/s
8,CCCN1CC(=O)N(C)[C@@H](Cc2ccccc2)C(=O)N(C)[C@@H](CC(C)C)C(=O)N[C@@H](COCC(C)(C)O)C(=O)N(C)[C@@H](CC(C)C)C(=O)N[C@H](C(=O)N2CCCCC2)CC(=O)N(C)CC(=O)N(C)[C@@H](Cc2ccccc2)C(=O)N[C@@H]([C@@H](C)CC)C(=O)N(C)[C@@H](CC(C)C)C(=O)N[C@@H]([C@@H](C)O)C1=O [AP08] ([Sar][NMeF]I[NMeL]T[NPrGly][NMeF][NMeL]S(CH2CMe2OH)[NMeL]D-Piperidide; lactam N-11),0.67 ×10⁻⁶ cm/s
9,CCCN1CC(=O)N(C)[C@@H](Cc2ccccc2)C(=O)N[C@@H]([C@@H](C)CC)C(=O)N(C)[C@@H](CC(C)C)C(=O)N[C@@H]([C@@H](C)O)C(=O)N(CCC)CC(=O)N(C)[C@@H](Cc2ccccc2)C(=O)N(C)[C@@H](CC(C)C)C(=O)N[C@@H](COCC(C)(C)O)C(=O)N(C)[C@@H](C(C)C)C(=O)N[C@H](C(=O)N2CCCCC2)CC1=O [AP09] ([NPrGly][NMeF]I[NMeL]T[NPrGly][NMeF][NMeL]S(CH2CMe2OH)[NMeV]D-Piperidide; lactam N-11),1.1 ×10⁻⁶ cm/s
10,CCCN1CC(=O)N(C)[C@@H](CC(C)C)C(=O)N[C@@H](COCC(C)(C)O)C(=O)N(C)[C@@H](Cc2ccccc2)C(=O)N(C)[C@@H](CC(C)C)C(=O)N[C@H](C(=O)N2CCCCC2)CC(=O)N[C@H](C(C)C)C(=O)N(C)[C@@H](Cc2ccccc2)C(=O)N[C@@H](CC(C)C)C(=O)N(C)[C@@H](CC(C)C)C(=O)N[C@@H]([C@@H](C)O)C1=O [AP10] ([dV][NMeF]L[NMeL]T[NPrGly][NMeL]S(CH2CMe2OH)[NMeF][NMeL]D-Piperidide; lactam N-11),1.5 ×10⁻⁶ cm/s
11,CCCCN1CC(=O)N(C)[C@@H](CC(C)C)C(=O)N[C@@H](COCC(=O)NC(C)(C)C)C(=O)N(C)[C@@H](CCc2ccccc2)C(=O)N(C)[C@@H](C)C(=O)N[C@H](C(=O)N2CCCCC2)CC(=O)N[C@H](CC(C)C)C(=O)N(C)[C@@H](CC(C)C)C(=O)N[C@@H](Cc2ccccc2)C(=O)N(C)[C@@H](CC(C)C)C(=O)N[C@@H](C(C)O)C1=O (stereo partly drawn) [AP12] ([dL][NMeL]F[NMeL][Thr(3ξ)][NBuGly][NMeL]S(CH2CONHtBu)[NMehPhe][NMeA]D-Piperidide; lactam N-11),0.17 ×10⁻⁶ cm/s
12,CCCN1CC(=O)N(C)[C@@H](CC(C)C)C(=O)N[C@@H](COCC(=O)NC(C)(C)C)C(=O)N(C)[C@@H](CC(C)C)C(=O)N(C)[C@@H](C)C(=O)N[C@H](C(=O)N2CCCCC2)CC(=O)N[C@H](CC(C)C)C(=O)N(C)[C@@H](CC(C)C)C(=O)N[C@@H](Cc2ccccc2)C(=O)N(C)[C@@H](CCc2ccccc2)C(=O)N[C@@H]([C@@H](C)O)C1=O [AP13] ([dL][NMeL]F[NMehPhe]T[NPrGly][NMeL]S(CH2CONHtBu)[NMeL][NMeA]D-Piperidide; lactam N-11),0.32 ×10⁻⁶ cm/s
13,CC(C)C[C@@H]1NC(=O)[C@H](Cc2ccccc2)N(C)C(=O)[C@H](CC(C)C)N(C)C(=O)[C@H](COCC(=O)NC(C)(C)C)NC(=O)[C@H](CC(C)C)N(C)C(=O)C[C@@H](C(=O)N2CCCCC2)NC(=O)[C@H](C)N(C)C(=O)CN(C)C(=O)[C@H]([C@@H](C)O)NC(=O)[C@H](CC(C)C)N(C)C(=O)[C@H](CCc2ccccc2)N(C)C1=O [AP14] ([NMeL]S(CH2CONHtBu)[NMeL][NMeF]L[NMehPhe][NMeL]T[Sar][NMeA]D-Piperidide; lactam N-11),0.39 ×10⁻⁶ cm/s
